Data set [1] concerns the target T1, GPBAR1 (Homo sapiens, UniProt Q8TDU6).
T1 construct: expressed in transfected cells; host or cells: HEK-293T
T1 sequence (Q8TDU6 1-330): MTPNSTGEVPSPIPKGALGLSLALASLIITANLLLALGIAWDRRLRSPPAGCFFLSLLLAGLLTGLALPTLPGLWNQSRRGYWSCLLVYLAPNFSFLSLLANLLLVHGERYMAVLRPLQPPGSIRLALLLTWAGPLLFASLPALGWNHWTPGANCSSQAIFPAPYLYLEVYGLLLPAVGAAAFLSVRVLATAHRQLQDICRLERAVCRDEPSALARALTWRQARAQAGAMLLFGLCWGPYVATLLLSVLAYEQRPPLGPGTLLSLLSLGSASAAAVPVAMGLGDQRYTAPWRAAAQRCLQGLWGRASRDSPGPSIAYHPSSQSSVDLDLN
As to the kind of experiment: Luciferase reporter (CRE) transactivation assay in HEK-293T cells transfected with GPBAR1. Conditions: dose response 1 to 50 µM, HEK-293T transfected with GPBAR1. Type of data set: cell-based. Here is the method: (§1) The activity of compounds 1–14 on GPBAR1 was evaluated in a luciferase reporter assay using HEK-293T cells transfected with GPBAR1. The efficacy of tested compounds (Table 1) was measured using taurolithocholic acid (TLCA) as GPBAR1 reference compound[10],[11]. Each compound was tested at the concentration of 10 μM and transactivation activity of TLCA on a cAMP responsive element (CRE) (i.e. TGR5/GPBAR1) was considered equal to 100%. […] Thus, 9 and 10 (Table 1) turned out to be the most promising derivatives considering their low EC50 values and high activity efficacy. To further characterize the pharmacological properties of these compounds, we expanded their in vitro profile to common off-targets for bile acid receptor ligands.
Transactivation assay on HEK-293T cells was performed to investigate GPBAR1 activation, using compound 1–14 and TLCA as positive control at 10 µM, as previously reported.
Supplementary Figure S4. HEK-293T cells were transiently transfected with GPBAR1 and a reporter gene containing a cAMP responsive element in front of the luciferase gene. Cells were stimulated with compounds A-L (10 μM). TLCA (10 μM) was used as positive control. Luciferase activity served as a measure of the rise in intracellular cAMP following activation of GPBAR1. In all panels, results are expressed as mean ± standard error. ^∗p < 0.05 versus not treated cells (NT).
For orientation: In a reporter assay the amount or activity of a reporter protein is the signal.

In data set [2] the test system is pro-glucagon mRNA in GLUTag cells. The experiment in a line: RT-PCR of pro-glucagon mRNA expression in GLUTag cells. Type of data set: cell-based, mouse. The settings on record: 10 μM. On the procedure:
as §1
Figure 3 (A) Dose response curves of compounds 9 and 10 (concentrations ranging from 1 to 50 µM) in luciferase reporter assay. (B) Real-time PCR analysis of mRNA expression of Pro-glucagon in GLUTag cells treated with compounds 9 and 10 at 10 μM, and TLCA used as a positive control (10 μM). Values are normalized to GAPDH and are expressed relative to those of not treated cells (NT) which are arbitrarily settled to 1. The relative mRNA expression is expressed as 2^(−ΔΔCt). (C) Specificity of compounds 9 and 10 at 10 μM dose in luciferase reporter assays versus PPARα and PPARγ using Gemfibrozil (GEM, 10 μM) and Rosiglitazone (ROSI, 100 nM) as positive controls respectively. (D) Specificity of compounds 9 and 10 at 10 μM in luciferase reporter assays versus LXRα and LXRβ using GW3965 (GW, 10 μM) as positive control. (E) Specificity of compounds 9 and 10 at 10 μM in luciferase reporter assays versus FXR using CDCA (10 μM) as positive control; (F) Specificity of compounds 9 and 10 at 10 μM in luciferase reporter assays versus PXR using Rifaximin (Rifax, 10 μM) as positive control.
Evaluation of proglucagon mRNA expression was performed in RT-PCR on GLUTag cells (1 × 10^6 cells/well in a 6 well plate) as previously reported[34],[47]. The relative mRNA expression was calculated and expressed as 2^−(ΔΔCt). […]

The target of data set [3] is T2, LXRα (Homo sapiens, UniProt Q13133).
T2 construct: host or cells: HepG2
T2 sequence (Q13133 1-447): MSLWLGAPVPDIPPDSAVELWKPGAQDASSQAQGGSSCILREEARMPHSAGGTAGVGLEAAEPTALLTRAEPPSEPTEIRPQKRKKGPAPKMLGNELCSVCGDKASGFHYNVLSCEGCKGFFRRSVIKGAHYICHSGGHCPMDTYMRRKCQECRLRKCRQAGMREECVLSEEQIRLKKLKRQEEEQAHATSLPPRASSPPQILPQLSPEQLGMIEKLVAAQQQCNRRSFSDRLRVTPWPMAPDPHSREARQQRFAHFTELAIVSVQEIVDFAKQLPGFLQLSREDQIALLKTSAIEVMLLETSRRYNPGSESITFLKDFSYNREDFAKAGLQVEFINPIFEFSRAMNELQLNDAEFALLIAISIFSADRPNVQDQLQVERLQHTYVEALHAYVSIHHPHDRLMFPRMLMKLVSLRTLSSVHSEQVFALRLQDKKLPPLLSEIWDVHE
As to the kind of experiment: Luciferase reporter specificity assay versus LXRα on HepG2 cells. In kind it is cell-based. The settings on record: 10 μM. On the procedure:
as §1
Figure 3 (A) Dose response curves of compounds 9 and 10 (concentrations ranging from 1 to 50 µM) in luciferase reporter assay. (B) Real-time PCR analysis of mRNA expression of Pro-glucagon in GLUTag cells treated with compounds 9 and 10 at 10 μM, and TLCA used as a positive control (10 μM). Values are normalized to GAPDH and are expressed relative to those of not treated cells (NT) which are arbitrarily settled to 1. The relative mRNA expression is expressed as 2^(−ΔΔCt). […]
The specificity of compounds 9 and 10 versus PPARα, PPARγ, LXRα, LXRβ, FXR and PXR was determined in luciferase reporter gene assays as previously reported[29],[31].

The nature of data set [4]: Aqueous solubility measurement (PBS pH 7.4, LC-MS). The settings on record: aqueous buffer, kinetic from dmso stock; PBS pH 7.4, 24 h room temperature. In kind it is physicochemical. On the procedure:
Chromatography was performed using a HPLC–MS system Q-ToF Premiere instrument (Waters, Co.) equipped with an ESI source and Waters pump systems. The mixture was separated on a Luna 5 µm C8(2) 100 °A 150 × 2 mm from Phenomenex. The mobile phase consisted of 0.2% formic acid (FA) in water as solvent A and 0.2% FA in acetonitrile as solvent B at a flow rate of 200 μL/min. The gradient was as follows: 0–2 min (75% A and 25% B), 2–20 min (5% A and 95% B), 20–30 min (75% A and 25% B). The detection of analytes was achieved by ESI in the positive mode with the appropriate MRM transition or by UV system at 220 nm.
Ten μL of a 10 mM solution in DMSO of the compound was diluted either in 490 μL of PBS pH 7.4 or in the organic solvent MeOH (in triplicate). The tubes were gently shaken 24 h at room temperature, then centrifuged for 5 min at 4000 rpm. Ten μL of sample was diluted in 490 μL of MeOH. The solubility is determined by the ratio of mass signal area PBS/organic solvent.

We go through two compounds from publication PMC6385358, “Discovery of ((1,2,4-oxadiazol-5-yl)pyrrolidin-3-yl)ureidyl derivatives as selective non-steroidal agonists of the G-protein coupled bile acid receptor-1” (Scientific Reports, 2019).

pEC50: −log10 of the molar value. Several values for one entry are separate records, joined by “and”; a condition that tells them apart may be missing. Identical values can stand only once.

As to `O=C(Nc1ccc(Cl)cc1)N[C@@H]1CN[C@H](c2nc(-c3ccccc3)no2)C1` [Compound 9], the pEC50 (as a rule, the negative decadic logarithm of the EC50, by convention in mol/L) in data set [1] is 5.46. Also, the “Induction of pro-glucagon mRNA expression” value in data set [2] is “effective in inducing the expression of pro-glucagon mRNA”. In addition, the LXRα transactivation result in data set [3] is “unable to induce”. The solubility – broadly, the dissolved amount per volume that the medium holds – at 24 h in data set [4] was 42 µg/mL and 110 µM.
In turn, `O=C(NC1CCCCC1)N[C@@H]1CN[C@H](c2nc(-c3ccccc3)no2)C1` [Compound 10] showed a negative logarithm of the EC50 (pEC50) in data set [1] of 5.34. In data set [2], the “Induction of pro-glucagon mRNA expression” value is listed as “effective in inducing the expression of pro-glucagon mRNA”. In data set [2] (TLCA 10 μM), the “Efficacy in inducing pro-glucagon mRNA expression compared with TLCA” value is on record as “same efficacy of TLCA”. The LXRα transactivation result in data set [3] is listed as “unable to induce”. The solubility at 24 h in data set [4] was 70 µg/mL and 198 µM.
